# Laboratory results from patent publication EP0900210B1, “ANTIVIRALLY ACTIVE HETEROCYCLIC AZAHEXANE DERIVATIVES” (Novartis AG, priority 1996, dated 1997).
# Biological target: T1, HIV-1-protease (Human immunodeficiency virus type 1 group M subtype B, UniProt P04585)
# T1 construct: made in house
# Test: Inhibition of HIV-1-protease with icosapeptide substrate […] (HPLC)
# Format: biochemical
# Settings: icosapeptide […] 122 µM, 20 mM MES pH 6.0, one hour at 37°C; read-out: IC50
# Procedure: The inhibitory action of the compounds of formula I on the proteolytic activity of HIV-1-protease can be shown, for example, according to known procedures (see A. D. Richards et al., J. Biol. Chem. 265(14), 7733-7736 (1990)). In that method the inhibition of the action of HIV-1-protease (preparation: see S. Billich et al., J. Biol. Chem. 263(34), 17905-17908 (1990)) is measured in the presence of the icosapeptide […] (a synthetic substrate of HIV-1-protease, prepared by peptide synthesis in accordance with known procedures (see J. Schneider et al., Cell 54, 363-368 (1988)), which contains as substrate analogue one of the cleavage sites of the gag-precursor protein (natural substrate of HIV-1-protease). That substrate and its cleavage products are analysed by high performance liquid chromatography (HPLC).
# The test compound is dissolved in dimethyl sulfoxide. The enzymatic test is carried out by adding suitable dilutions of the inhibitor in 20 mM β-morpholinoethanesulfonic acid (MES) buffer pH 6.0 to the test mixture. That mixture consists of the above-mentioned icosapeptide (122 µM) in 20 mM MES-buffer pH 6.0. 100 µl are used per test batch. The reaction is started by the addition of […] of HIV-1-protease solution and is stopped after one hour's incubation at 37°C by the addition of 10 µl of 0.3M HClO4. After centrifugation of the sample at 10 000 x g for 5 minutes, 20 µl of the resulting supernatant are applied to a 125 x 4.6 mm Nucleosil® C18-5m-HPLC column (reversed-phase material supplied by Macherey & Nagel, Düren, FRG, based on silica gel that has been charged with C18alkyl chains). The uncleaved icosapeptide and its cleavage products are eluted from the column by means of the following gradient: 100 % eluant 1 → 50 % eluant 1 + 50 % eluant 2 (eluant 1: 10 % acetonitrile, 90 % H2O, 0.1 % trifluoroacetic acid (TFA); eluant 2: 75 % acetonitrile, 25 % H2O, 0.08 % TFA) for 15 minutes, throughflow rate 1 ml/min. The quantification of the eluted peptide fragments is carried out by measuring the peak height of the cleavage product at 215 nm.
# Using the test system described above with the icosapeptide […], the IC50 values given below are obtained for the following Examples: […]
structure (smiles),measurement,value
"COC(=O)N[C@@H](CSC)C(=O)NN(Cc1ccc(-c2cncs2)cc1)C[C@H](O)[C@H](Cc1ccccc1)NC(=O)[C@@H](NC(=O)OC)C(C)C [Example 10, 1-[4-(Thiazol-5-yl)-phenyl]-4(S)-hydroxy-2-N-(N-methoxycarbonyl-(L)-S-methylcysteinyl)amino-5(S)-N-(N-methoxycarbonyl-(L)-valyl)amino-6-phenyl-2-azahexane]",IC50,20 nM
"COC(=O)N[C@H](C(=O)N[C@@H](Cc1ccccc1)[C@@H](O)CN(Cc1ccc(-c2nccs2)cc1)NC(=O)[C@@H](NC(=O)OC)C(C)(C)C)C(C)(C)C [Example 16, 1-[4-(Thiazol-2-yl)-phenyl]-4(S)-hydroxy-5(S)-2,5-bis[N-(N-methoxycarbonyl-(L)-tert-leucyl)amino]-6-phenyl-2-azahexane]",IC50,33 nM
"CCOC(=O)N[C@H](C(=O)NN(Cc1ccc(-c2cncs2)cc1)C[C@H](O)[C@H](Cc1ccccc1)NC(=O)[C@@H](NC(=O)OC)[C@@H](C)CC)C(C)C [Example 14, 1-[4-(Thiazol-5-yl)-phenyl]-4(S)-hydroxy-2-N-(N-ethoxycarbonyl-(L)-valyl)-amino-5(S)-N-(N-methoxycarbonyl-(L)-iso-leucyl)amino-6-phenyl-2-azahexane]",IC50,31 nM
"CC[C@H](C)[C@H](NC(=O)OC)C(=O)N[C@@H](Cc1ccccc1)[C@@H](O)CN(Cc1ccc(-c2cncs2)cc1)NC(=O)[C@H](CSC)NC(=O)OC [Example 15, 1-[4-(Thiazol-5-yl)-phenyl]-4(S)-hydroxy-2-N-(N-methoxycarbonyl-(L)-S-methylcysteinyl)amino-5(S)-N-(N-methoxycarbonyl-(L)-iso-leucyl)amino-6-phenyl-2-azahexane]",IC50,50 nM
"COC(=O)N[C@H](C(=O)N[C@@H](Cc1ccccc1)[C@@H](O)CN(Cc1ccc(-c2nccs2)cc1)NC(=O)[C@@H](NC(=O)OC)C(C)(C)C)C(C)C [Example 17, 1-[4-(Thiazol-2-yl)-phenyl]-4(S)-hydroxy-2-N-(N-methoxycarbonyl-(L)-tert-leucyl)amino-5(S)-N-(N-methoxycarbonyl-(L)-valyl)amino-6-phenyl-2-azahexane]",IC50,18 nM
"CC[C@H](C)[C@H](NC(=O)OC)C(=O)NN(Cc1ccc(-c2cnccn2)cc1)C[C@H](O)[C@H](Cc1ccccc1)NC(=O)[C@@H](NC(=O)OC)C(C)C [Example 41, 1-[4-(Pyrazin-2-yl)-phenyl]-4(S)-hydroxy-2-[N-(N-methoxycarbonyl-(L)-iso-leucyl)amino]-5(S)-[N-(N-methoxycarbonyl-(L)-valyl)amino]-6-phenyl-2-azahexane]",IC50,32 nM
"CCOC(=O)N[C@H](C(=O)NN(Cc1ccc(-c2nccs2)cc1)C[C@H](O)[C@H](Cc1ccccc1)NC(=O)[C@@H](NC(=O)OC)C(C)C)C(C)C [Example 19, 1-[4-(Thiazol-2-yl)-phenyl]-4(S)-hydroxy-2-N-(N-ethoxycarbonyl-(L)-valyl)amino-5(S)-N-(N-methoxycarbonyl-(L)-valyl)amino-6-phenyl-2-azahexane]",IC50,22 nM
"CC[C@H](C)[C@H](NC(=O)OC)C(=O)N[C@@H](Cc1ccccc1)[C@@H](O)CN(Cc1ccc(-c2cnccn2)cc1)NC(=O)[C@@H](NC(=O)OC)[C@@H](C)CC [Example 43, 1-[4-(Pyrazin-2-yl)-phenyl]-4(S)-hydroxy-5(S)-2,5-bis[N-(N-methoxycarbonyl-(L)-iso-leucyl)amino]-6-phenyl-2-azahexane]",IC50,37 nM
"CC[C@H](C)[C@H](NC(=O)OC)C(=O)N[C@@H](Cc1ccccc1)[C@@H](O)CN(Cc1ccc(-c2cncs2)cc1)NC(=O)[C@@H](NC(=O)OC)C(C)C [Example 12, 1-[4-(Thiazol-5-yl)-phenyl]-4(S)-hydroxy-2-N-(N-methoxycarbonyl-(L)-valyl)amino-5(S)-N-(N-methoxycarbonyl-(L)-iso-leucyl)amino-6-phenyl-2-azahexane]",IC50,20 nM
"COC(=O)N[C@H](C(=O)N[C@@H](Cc1ccccc1)[C@@H](O)CN(Cc1ccc(-c2cnccn2)cc1)NC(=O)[C@@H](NC(=O)OC)C(C)(C)C)C(C)C [Example 42, 1-[4-(Pyrazin-2-yl)-phenyl]-4(S)-hydroxy-2-[N-(N-methoxycarbonyl-(L)-tert-leucyl)amino]-5(S)-[N-(N-methoxycarbonyl-(L)-valyl)amino]-6-phenyl-2-azahexane]",IC50,15 nM
"COC(=O)N[C@H](C(=O)N[C@@H](Cc1ccccc1)[C@@H](O)CN(Cc1ccc(-c2cccs2)cc1)NC(=O)[C@@H](NC(=O)OC)C(C)C)C(C)C [Example 45, 1-[4-(Thiophen-2-yl)-phenyl]-4(S)-hydroxy-5(S)-2,5-bis[N-(N-methoxycarbonyl-(L)-valyl)amino]-6-phenyl-2-azahexane]",IC50,12 nM
"COC(=O)N[C@H](C(=O)N[C@@H](Cc1ccccc1)[C@@H](O)CN(Cc1ccc(-c2ccccn2)cc1)NC(=O)[C@@H](NC(=O)OC)C(C)C)C(C)C [Example 37, 1-[4-(Pyridin-2-yl)-phenyl]-4(S)-hydroxy-5(S)-2,5-bis[N-(N-methoxycarbonyl-(L)-valyl)amino]-6-phenyl-2-azahexane]",IC50,29 nM
"COC(=O)N[C@H](C(=O)N[C@@H](Cc1ccccc1)[C@@H](O)CN(Cc1ccc(-c2nnnn2C)cc1)NC(=O)[C@@H](NC(=O)OC)C(C)(C)C)C(C)(C)C [27 (1-methyl-1H-tetrazolyl isomer), 1-[4-(1-methyl-1H-tetrazol-5-yl)-phenyl]-4(S)-hydroxy-5(S)-2,5-bis[N-(N-methoxycarbonyl-(L)-tert-leucyl)amino]-6-phenyl-2-azahexane]",IC50,51 nM
"COC(=O)N[C@H](C(=O)N[C@@H](Cc1ccccc1)[C@@H](O)CN(Cc1ccc(-c2nccs2)cc1)NC(=O)[C@@H](NC(=O)OC)C(C)C)C(C)C [Example 20, 1-[4-(Thiazol-2-yl)-phenyl]-4(S)-hydroxy-5(S)-2,5-bis[N-(N-methoxycarbonyl-(L)-valyl)amino]-6-phenyl-2-azahexane]",IC50,15 nM
"COC(=O)N[C@@H](CSC)C(=O)NN(Cc1ccc(-c2cncs2)cc1)C[C@H](O)[C@H](Cc1ccccc1)NC(=O)[C@@H](NC(=O)OC)C(C)(C)C [Example 5, 1-[4-(Thiazol-5-yl)-phenyl]-4(S)-hydroxy-2-N-(N-methoxycarbonyl-(L)-S-methylcysteinyl)amino-5(S)-N-(N-methoxycarbonyl-(L)-tert-leucyl)amino-6-phenyl-2-azahexane]",IC50,40 nM
"CC[C@H](C)[C@H](NC(=O)OC)C(=O)N[C@@H](Cc1ccccc1)[C@@H](O)CN(Cc1ccc(-c2nnn(C(C)(C)c3ccccc3)n2)cc1)NC(=O)[C@@H](NC(=O)OC)C(C)(C)C [Example 31, 1-{4-[2-(1-Methyl-1-phenyl-ethyl)-2H-tetrazol-5-yl]-phenyl}-4(S)-hydroxy-2-N-(N-methoxycarbonyl-(L)-tert-leucyl)amino-5(S)-N-(N-methoxycarbonyl-(L)-iso-leucyl)amino-6-phenyl-2-azahexane]",IC50,171 nM
"COC(=O)N[C@H](C(=O)NN(Cc1ccc(-c2ccccn2)cc1)C[C@H](O)[C@H](Cc1ccccc1)NC(=O)[C@@H](NC(=O)OC)C(C)(C)C)C(C)C [Example 48, 1-[4-(Pyridin-2-yl)-phenyl]-4(S)-hydroxy-2-N-(N-methoxy-carbonyl-(L)-valyl)amino-5(S)-N-(N-methoxycarbonyl-(L)-tert-leucyl)amino-6-phenyl-2-azahexane]",IC50,31 nM
"CC[C@H](C)[C@H](NC(=O)OC)C(=O)N[C@@H](Cc1ccccc1)[C@@H](O)CN(Cc1ccc(-c2nccs2)cc1)NC(=O)[C@@H](NC(=O)OC)C(C)(C)C [Example 21, 1-[4-(Thiazol-2-yl)-phenyl]-4(S)-hydroxy-2-N-(N-methoxycarbonyl-(L)-tert-leucyl)amino-5(S)-N-(N-methoxycarbonyl-(L)-iso-leucyl)amino-6-phenyl-2-azahexane]",IC50,43 nM
"COC(=O)N[C@H](C(=O)N[C@@H](Cc1ccccc1)[C@@H](O)CN(Cc1ccc(-c2cncs2)cc1)NC(=O)[C@@H](NC(=O)OC)C(C)(C)C)C(C)C [Example 7, 1-[4-(Thiazol-5-yl)-phenyl]-4(S)-hydroxy-2-N-(N-methoxcarbonyl-(L)-tert-leucyl)amino-5(S)-N-(N-methoxycarbonyl-(L)-valyl)amino-6-phenyl-2-azahexane]",IC50,13 nM
"CC[C@H](C)[C@H](NC(=O)OC)C(=O)N[C@@H](Cc1ccccc1)[C@@H](O)CN(Cc1ccc(-c2nccs2)cc1)NC(=O)[C@H](CSC)NC(=O)OC [Example 24, 1-[4-(Thiazol-2-yl)-phenyl]-4(S)-hydroxy-2-N-(N-methoxycarbonyl-(L)-S-methylcysteinyl)amino-5(S)-N-(N-methoxycarbonyl-(L)-iso-leucyl)amino-6-phenyl-2-azahexane]",IC50,50 nM
